Source: patent publication US20180303859A1, “Agent For Preventing And/Or Treating Scleroderma” (THE UNIVERSITY OF TOKYO, priority 2015, published 2018)

Assays:
[1] = tested on: mice deficient for vascular endothelial cell-specific Fli1 (Fli1 flox/flox; Tie2-Cre); experiment: Extravasation of Evans blue dye in vascular endothelial cell-specific Fli1 deficient mice; format: in vivo; conditions: vascular endothelial cell-specific Fli1 knockout mice; intraperitoneal administration, two weeks; absorbance at 620 nm
Procedure: Subsequently, under the same conditions as in Example 1, monoammonium glycyrrhizinate or PBS was intraperitoneally administered to 10-week-old mice deficient for vascular endothelial cell-specific Fli1 (Fli1 flox/flox; Tie2-Cre: see American Journal of Pathology, April 2010 Volume 176, Issue 4, p 1983-1998), which are model mice for angiopathy in scleroderma, or to control mice (Fli1 flox/flox). Two weeks later, 200 μl of Evans blue dye (0.5% in PBS) was administered into the tail vein of each mouse, and the mouse was euthanized 30 minutes thereafter, followed by incision of the skin from the middle of the abdomen. Cutaneous blood vessels were macroscopically observed from the dermal side to evaluate the degree of leakage of the dye. Further, for measurement of extravasation of Evans blue, skin was collected from three positions using a skin biopsy punch with a diameter of 4 mm, and then allowed to dissolve in formamide at 37° C. for 24 hours, followed by measurement of the absorbance at a wavelength of 620 nm using a microplate reader.

[2] = tested on: BLM-induced scleroderma model mice; experiment: Study on inflammation and immune abnormality in BLM-induced scleroderma model mice (FACS of CD4-positive cells, skin cytokine mRNA); format: in vivo
Procedure: BLM-induced scleroderma model mice were prepared by the same treatment as in Example 1 except that the bleomycin administration treatment was carried out for only one week. On the last day of the administration, bilateral inguinal lymph nodes and the spleen were removed from each mouse. After mashing the lymph nodes, lymphocytes were separated therefrom. To blood cells removed from the spleen, RBC lysis buffer (0.0017 M Trizma, Sigma-Aldrich, 0.1 M NH4Cl 2.675 g, Sigma-Aldrich) was added to separate lymphocytes. The lymphocytes were subjected to staining of surface antigens using an anti-CD3 antibody (17A2), anti-CD4 antibody (RM4-5), and anti-CD8a antibody (53-6.7). Further, stimulation was carried out with 10 ng/ml phorbol myristate acetate (Sigma-Aldrich), 1 μg/ml ionomycin (Sigma-Aldrich), and 1 μg/ml brefeldin A ([…]; BD PharMingen) for four hours, and staining of intracellular antigens was carried out using an anti-interleukin (IL)-4 antibody (11B11), anti-IL17A antibody (TC11-18HC0.1), and anti-interferon (IFN)-γ antibody (XMG1.2) (all antibodies were manufactured by BioLegend, San Diego, Calif., USA). The stained lymphocytes were analyzed using a FACS Verseflow cytometer (BD Biosciences).
Further, from the skin of the back at the injection site of each BLM-induced scleroderma model mouse, RNA was extracted by the same method as in Example 1, and the mRNA levels of IL4, IL1 b, and arginase were measured. Primers having the following sequences were used.

[3] = tested on: BLM-induced scleroderma model mice; experiment: Endothelial-to-mesenchymal transition (Endo-MT) in skin of BLM-induced scleroderma model mice (VE-cadherin/FSP1 immunostaining, Snail1 mRNA); format: in vivo
Procedure: Paraffin sections were prepared using skin samples of the injection site of BLM-induced scleroderma model mice prepared under the same conditions as in Example 1. A rabbit anti-VE-cadherin antibody (Santa Cruz Biotechnolog) and a goat anti-fibroblast-specific protein 1 (FSP1) antibody (abcam, Cambridge, UK) as primary antibodies, and an FITC-conjugated donkey anti-rabbit IgG antibody (Santa Cruz Biotechnolog) and an Alexa Fluor donkey 555 anti-goat IgG antibody (Invitrogen, Carlsbad, Calif., USA) as secondary antibodies, were reacted with the sections, and nuclear staining was performed using Vectashield with DAPI (Vector Laboratories, Burlingame, Calif., USA). Observation was carried out using Bio Zero BZ-8000 (Keyence, Osaka, Japan) at wavelengths of 495 nm (green), 565 nm (red), and 400 nm (blue). The number of cells stained with both FSP1 and VE-Cadherin, which are observed as green color and red color, respectively (cells that had undergone Endo-MT), was compared. Further, from the skin samples, RNA was extracted by the same method as in Example 1, and the mRNA level of Snail1 was measured. Primers having the following sequences were used.

[4] = tested on: BLM-induced scleroderma model mice; experiment: Study on fibrosis in BLM-induced scleroderma model mice (dermal thickness, collagen, α-SMA-positive fibroblasts, skin mRNA); format: in vivo, C57BL/6 mice
Procedure: To the skin of the back of 8-week-old C57BL/6 mice (wild type), 1 mg/ml bleomycin (BLM) solution prepared with phosphate buffered saline (PBS) was intracutaneously injected at a dose of 300 μg every day for four weeks to prepare BLM-induced scleroderma model mice. A control group was provided by subcutaneous injection of the same amount of PBS. At the same time, monoammonium glycyrrhizinate (Cokey Co., Ltd.) dissolved in PBS was intraperitoneally administered at a dose of 30 mg/kg every day for four weeks. A control group was provided by intraperitoneal administration of the same amount of PBS. Using a skin biopsy punch with a diameter of 6 mm, the skin tissue at the injection site was collected, and subjected to Hematoxylin & Eosin staining to measure the dermal thickness. Further, a skin sample collected by the same method was subjected to quantification of the collagen content using a QuickZyme Total Collagen Assay kit (QuickZyme BioSciences B.V., Netherlands).
Paraffin sections were prepared using the skin of the back at the injection site of each BLM-induced scleroderma model mouse, and reacted with an anti-α-smooth muscle actin (α-SMA) antibody (Sigma-Aldrich, St. Louis, Mo., USA) according to the manufacturer's instruction provided for the VEVTOR M.O.M Immunodetection Kit (Vector laboratories, Burlingame, Calif., USA), followed by coloring with DAB (0.2 mg/ml, DOJINDO LABORATORIES, Kumamoto, JAPAN). For each mouse skin sample, three photographs of the superficial dermal layer were randomly taken for ×400 viewing areas, and the numbers of spindle-shaped cells positive for α-SMA were counted. Their average was regarded as the number of α-SMA-positive fibroblasts in the mouse. Comparison was made between the glycyrrhizic acid group and the control group.
Further, RNA was extracted from the skin of the back at the injection site of each BLM-induced scleroderma model mouse using an RNeasy min kit (Qiagen Valencia, Calif., USA), and then reverse-transcribed into cDNA using iScript cDNA Synthesis Kits (Bio-Rad, Hercules, Calif., USA). Measurement by quantitative real-time PCR was carried out using a SYBR Green PCR Master Mix (Life technologies) with ABI prism 7000 (Life technologies). The measurement was carried out in triplicate for each sample to calculate the average value. As a reference gene, Gapdh was used. The relative expression level of mRNA of the subject gene was calculated by the ^ΔΔCt method. Primers having the following sequences were used.

[5] = lymph nodes or spleen, BLM for one week, FACS
[6] = skin tissue of BLM-induced scleroderma model mice
[7] = skin of BLM-induced scleroderma model mice, quantitative real-time PCR

## CC1(C)[C@@H](O[C@H]2O[C@H](C(=O)O)[C@@H](O)[C@H](O)[C@H]2O[C@@H]2O[C@H](C(=O)O)[C@@H](O)[C@H](O)[C@H]2O)CC[C@]2(C)[C@H]3C(=O)C=C4[C@@H]5C[C@@](C)(C(=O)O)CC[C@]5(C)CC[C@@]4(C)[C@]3(C)CC[C@@H]12 [glycyrrhizic acid]
[1]
  extravasation of Evans blue: significantly decreased
[2]; [5]
  ratio of IFN-γ-positive cells among CD4-positive cells: did not cause any change
  ratio of IL17A-positive cells among CD4-positive cells: did not cause any change
[2]; lymph nodes, BLM for one week, FACS
  ratio of IL4-positive cells among CD4-positive T cells: significant decreases
[2]; [6]
  mRNA of arginase (marker for M2 macrophages): decreased
  mRNA of interleukin 1 b: decreased
  mRNA of interleukin 4: decreased
[2]; spleen, BLM for one week, FACS
  ratio of IL4-positive cells among CD4-positive T cells: significant decreases
[3]
  mRNA level of Snail1: significantly decreased
[3]; immunostaining
  increase in cells that have undergone Endo-MT (stained for both VE-cadherin and FSP1): suppressed
[4]; BLM-induced scleroderma model mice, 30 mg/kg i.p. daily, four weeks
  number of myofibroblasts (α-SMA-positive fibroblasts) in the skin: significant decrease
[4]; BLM-induced scleroderma model mice, 30 mg/kg intraperitoneally every day for four weeks
  dermal thickness (thickening of the dermis): reduced
[4]; BLM-induced scleroderma model mice, skin at injection site, 30 mg/kg i.p. daily, four weeks
  amount of collagen fibers: decreased
[4]; control mice not subjected to BLM induction, 30 mg/kg i.p. daily, four weeks
  amount of collagen fibers: did not cause any change
[4]; control mice not subjected to BLM induction, 30 mg/kg intraperitoneally every day for four weeks
  dermal thickness: did not cause any change
[4]; [7]
  mRNA of Col1a1: significant decreases
  mRNA of Col1a2: significant decreases
  mRNA of Col3a1: significant decreases
  mRNA of Mmp13 (collagenase): significant increase
  mRNA of thrombospondin (Thbs1): decrease
